Laboratory results reported in patent US9629364B2, “Synergistic weed control from applications of aminopyralid and clopyralid” (Dow AgroSciences LLC, priority 2012, dated 2017).
Structures can show the parent of a compound that is named as a salt.

Test system: black nightshade (Solanam nigram)
Experiment: Field trial, post-emergence foliar application, weed control rating 0-100%
Type: in vivo
Details: SOLNI, 56 days after first application, with 0.5 L/ha ACTIROB
Source text: The (a) aminopyralid or an agriculturally acceptable salt or ester thereof is mixed with or applied in combination with (b) clopyralid or an agriculturally acceptable salt or ester thereof in an amount sufficient to induce a synergistic herbicidal effect. […] As described in the Herbicide Handbook of the Weed Science Society of America, Ninth Edition, 2007, p. 429, “‘synergism’ [is] an interaction of two or more factors such that the effect when combined is greater than the predicted effect based on the response to each factor applied separately.” Synergistic in the herbicide context can mean that the use of (a) and (b) as defined above results in an increased weed control effect compared to the weed control effects that are possible with the use of (a) or (b) alone. In some embodiments, the damage or injury to the undesired vegetation caused by the compositions and methods disclosed herein is evaluated using a scale from 0% to 100%, when compared with the untreated control vegetation, wherein 0% indicates no damage to the undesired vegetation and 100% indicates complete destruction of the undesired vegetation. […] 22 (1967) […]
Colby's equation was used to determine the herbicidal effects expected from the mixtures, as described above. The results were measured at 56 days after the first application of the compositions. […]

| Compound | Mean % weed control (1 g ae/ha applied alone) | Mean % weed control (90 g ae/ha applied alone) |
| --- | --- | --- |
| Nc1cc(Cl)nc(C(=O)O)c1Cl [Aminopyralid Potassium Salt, 4-amino-3,6-dichloro-2-pyridinecarboxylic acid] | 0% |  |
| O=C(O)c1nc(Cl)ccc1Cl [Clopyralid-olamine, 3,6-dichloro-2-pyridinecarboxylic acid] |  | 37.5% |
